Among the data in BindingDB's records for doi:10.1021/jm021089h (Institute of Biomedical Chemistry of Russian Academy of …, 2003) are IC50 values, retold here.

Broadly, the IC50 is the point on the concentration scale where inhibition reaches its midpoint. A high value points to weaker potency in that assay.

In this assay the target is Angiotensin-converting enzyme (Bos taurus) (UniProt P12820). In words: Inhibitory activity against Angiotensin I converting enzyme (ACE) from bovine kidney.
Sequence of Angiotensin-converting enzyme (Bos taurus) (P12820 whole entry, looked up): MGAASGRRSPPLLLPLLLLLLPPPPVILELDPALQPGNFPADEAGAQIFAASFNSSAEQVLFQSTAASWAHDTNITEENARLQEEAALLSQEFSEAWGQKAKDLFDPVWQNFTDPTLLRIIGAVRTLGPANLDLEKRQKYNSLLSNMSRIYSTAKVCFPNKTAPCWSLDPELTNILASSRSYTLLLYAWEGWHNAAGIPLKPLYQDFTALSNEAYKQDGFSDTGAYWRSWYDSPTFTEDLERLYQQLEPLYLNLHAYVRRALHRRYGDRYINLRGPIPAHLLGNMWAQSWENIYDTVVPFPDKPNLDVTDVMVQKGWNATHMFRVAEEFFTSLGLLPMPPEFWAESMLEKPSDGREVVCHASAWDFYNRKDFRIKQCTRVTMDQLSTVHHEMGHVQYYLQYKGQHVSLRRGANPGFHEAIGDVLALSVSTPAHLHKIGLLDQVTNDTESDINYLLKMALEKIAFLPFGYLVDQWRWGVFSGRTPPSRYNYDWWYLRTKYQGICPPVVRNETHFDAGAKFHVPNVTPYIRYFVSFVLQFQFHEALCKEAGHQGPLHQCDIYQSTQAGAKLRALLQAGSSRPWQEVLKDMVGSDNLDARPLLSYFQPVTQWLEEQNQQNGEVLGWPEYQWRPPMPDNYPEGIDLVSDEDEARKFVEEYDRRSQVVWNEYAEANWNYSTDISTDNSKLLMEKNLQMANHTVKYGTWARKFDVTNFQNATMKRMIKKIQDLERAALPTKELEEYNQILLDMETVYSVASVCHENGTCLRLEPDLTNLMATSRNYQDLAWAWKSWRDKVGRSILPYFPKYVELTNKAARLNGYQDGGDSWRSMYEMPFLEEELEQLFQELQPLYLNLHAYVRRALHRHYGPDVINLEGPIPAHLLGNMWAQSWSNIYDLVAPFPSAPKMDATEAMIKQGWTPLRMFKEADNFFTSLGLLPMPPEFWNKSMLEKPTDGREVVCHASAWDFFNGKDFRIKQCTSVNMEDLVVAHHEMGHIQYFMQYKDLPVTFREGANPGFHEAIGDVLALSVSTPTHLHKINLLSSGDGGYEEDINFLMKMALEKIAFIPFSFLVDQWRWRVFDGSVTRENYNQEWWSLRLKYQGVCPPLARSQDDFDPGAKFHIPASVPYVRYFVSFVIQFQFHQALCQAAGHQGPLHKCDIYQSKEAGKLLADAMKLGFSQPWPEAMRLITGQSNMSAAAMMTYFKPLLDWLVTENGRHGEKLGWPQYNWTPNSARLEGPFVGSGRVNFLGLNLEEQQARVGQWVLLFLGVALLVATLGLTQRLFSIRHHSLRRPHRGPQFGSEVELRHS

As for `CC1CCCC(C(=O)O)N1C(=O)CCS` (stereo not drawn) [1-(3-Mercapto-propionyl)-6-methyl-piperidine-2-carboxylic acid], the IC50 was found to be 1 nM. In the case of `CC(=O)SCC(C)C(=O)NCc1ccccc1` (stereo not drawn) [Thioacetic acid S-(2-benzylcarbamoyl-propyl) ester] it was 500000 nM; in that of `CC(=O)SCC(C)C(=O)Nc1ccccc1` (stereo not drawn) [Thioacetic acid S-(2-phenylcarbamoyl-propyl) ester], 300 nM.
